pIC50: −log10 of the molar value.
Key:
GLS = target: T1, GLS (Homo sapiens, UniProt O94925); details: previously reported; cited from earlier work
T1 sequence (O94925 124-669 limits assumed): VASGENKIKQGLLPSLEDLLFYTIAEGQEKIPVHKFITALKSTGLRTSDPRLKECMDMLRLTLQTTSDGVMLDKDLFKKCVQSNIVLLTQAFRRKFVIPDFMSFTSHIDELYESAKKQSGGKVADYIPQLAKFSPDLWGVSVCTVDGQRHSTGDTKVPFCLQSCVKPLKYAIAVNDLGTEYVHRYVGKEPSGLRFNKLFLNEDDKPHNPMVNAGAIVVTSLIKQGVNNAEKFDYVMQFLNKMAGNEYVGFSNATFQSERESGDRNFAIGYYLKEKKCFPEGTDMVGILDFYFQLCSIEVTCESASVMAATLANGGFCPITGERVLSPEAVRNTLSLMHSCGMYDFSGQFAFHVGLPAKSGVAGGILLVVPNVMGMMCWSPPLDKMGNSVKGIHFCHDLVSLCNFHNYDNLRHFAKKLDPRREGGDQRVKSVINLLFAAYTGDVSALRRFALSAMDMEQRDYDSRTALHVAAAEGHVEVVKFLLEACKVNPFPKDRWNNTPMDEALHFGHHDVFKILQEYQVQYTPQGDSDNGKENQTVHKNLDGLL

[1] = mouse liver microsomes, phase I
[2] = tested on: P493 human lymphoma B cells; assay: P493 cell proliferation assay; assay type: cell-based; details: P493-6, read-out: IC50 (growth of P493 cells)

For `Nc1nnc(CCSCCc2nnc(N)s2)s1` [Compound 5, Bis-[2-(5-Amino-[1,3,4]thiadiazol-2-yl)-ethylsulfide]], the “fold increase in IC50 value from 3 to 5” value (GLS) is given as 50 fold.
With `Nc1nnc(CCCCc2nnc(NC(=O)Cc3ccccc3)s2)s1` [Compound 11b, N-(5-(4-(5-amino-1,3,4-thiadiazol-2-yl)butyl)-1,3,4-thiadiazol-2-yl)-2-phenylacetamide] the “stability against microsomes in the presence of NADPH” value [1] was “completely stable”.
With `O=C(CCCCc1nnc(NC(=O)Cc2ccccc2)s1)NCCN1CCCC1` [Compound 29a, 5-(5-(2-phenylacetamido)-1,3,4-thiadiazol-2-yl)-N-(2-(pyrrolidin-1-yl)ethyl)pentanamide] the pIC50 [2] was about 4.40 and the “stability against microsomes in the presence of NADPH” value [1] was “completely stable”.

— article PMC3539823 (Journal of medicinal chemistry, 2012)
